Experimental data reported in PMC4559364, “Triterpenoid profiling and functional characterization of the initial genes involved in isoprenoid biosynthesis in neem (Azadirachta indica)” (BMC Plant Biology, 2015).

What was measured:
Type in all cases: biochemical
[1] = target: T1, AiGDS (Azadirachta indica, UniProt A0A088CND2); assay: GC-MS of geraniol after alkaline phosphatase; settings: HEPES buffer, 30 °C, 2 h
T1 construct: E. coli; solubilised from inclusion bodies by pH 11 to 7 shift; Ni-NTA; homomeric type; mitochondrial targeting predicted
T1 sequence (A0A088CND2 1-420): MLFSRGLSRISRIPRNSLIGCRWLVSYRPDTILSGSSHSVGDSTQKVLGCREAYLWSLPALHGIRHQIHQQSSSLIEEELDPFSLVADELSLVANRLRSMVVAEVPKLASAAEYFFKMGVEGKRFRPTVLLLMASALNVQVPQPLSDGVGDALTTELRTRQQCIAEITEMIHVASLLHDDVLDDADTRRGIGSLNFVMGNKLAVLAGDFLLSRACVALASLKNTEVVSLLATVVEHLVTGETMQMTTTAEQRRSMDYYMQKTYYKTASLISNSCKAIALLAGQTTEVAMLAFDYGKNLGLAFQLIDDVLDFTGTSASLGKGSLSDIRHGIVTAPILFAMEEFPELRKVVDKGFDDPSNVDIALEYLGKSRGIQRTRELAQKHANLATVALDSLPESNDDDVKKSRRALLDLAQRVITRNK

[2] = target: T2, full length AiSQS (Azadirachta indica, UniProt I1Z8B6); assay: GC-MS of squalene; settings: 100 μM FPP, 1 mM NADPH; 30 °C, 2 h
T2 construct: gene SQS1; full-length, printed as 396 residues from 1176 bp ORF (these disagree), 44 kDa; pRSET-C, His6 tag; E. coli BL21 Star(DE3); glycerol/CHAPS, Ni-NTA
T2 sequence (I1Z8B6 entry or part of it): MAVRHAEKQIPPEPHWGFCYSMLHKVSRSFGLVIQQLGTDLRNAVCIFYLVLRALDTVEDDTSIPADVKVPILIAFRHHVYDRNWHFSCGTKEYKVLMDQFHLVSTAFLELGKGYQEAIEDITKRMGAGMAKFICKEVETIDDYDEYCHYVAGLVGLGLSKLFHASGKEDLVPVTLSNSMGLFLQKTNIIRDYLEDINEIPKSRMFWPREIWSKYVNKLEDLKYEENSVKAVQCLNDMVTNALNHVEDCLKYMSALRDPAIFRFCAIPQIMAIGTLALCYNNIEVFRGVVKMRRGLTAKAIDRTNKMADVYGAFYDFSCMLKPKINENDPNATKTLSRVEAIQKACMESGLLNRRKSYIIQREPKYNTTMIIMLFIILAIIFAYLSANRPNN

[3] = target: T3, truncated AiSQS (Azadirachta indica, UniProt I1Z8B6); assay: GC-MS of squalene; settings: 100 μM FPP, 1 mM NADPH; 30 °C, 2 h
T3 construct: gene SQS1; truncated: 15 N-terminal and 63 C-terminal residues deleted (end border uncertain, printed 396 residues and 1176 bp ORF disagree); pET28c, His6 tag; E. coli BL21(DE3); Ni-NTA; ~35 kDa
T3 sequence (I1Z8B6 entry or part of it): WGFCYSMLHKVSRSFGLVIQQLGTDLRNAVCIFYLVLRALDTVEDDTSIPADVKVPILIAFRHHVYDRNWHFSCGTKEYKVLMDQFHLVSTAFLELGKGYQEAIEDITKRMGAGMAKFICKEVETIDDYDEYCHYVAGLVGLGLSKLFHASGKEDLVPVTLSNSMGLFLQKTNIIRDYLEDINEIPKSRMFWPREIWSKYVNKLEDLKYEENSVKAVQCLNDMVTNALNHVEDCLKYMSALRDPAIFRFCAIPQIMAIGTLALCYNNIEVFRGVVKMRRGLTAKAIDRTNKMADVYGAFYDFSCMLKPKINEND

[4] = target: T4, AiFDS (Azadirachta indica, UniProt A0A088CNE3); assay: GC-MS of (E,E)-farnesol after alkaline phosphatase; settings: HEPES buffer, 30 °C, 2 h
T4 construct: E. coli BL21(DE3); Ni-NTA
T4 sequence (A0A088CNE3 1-342): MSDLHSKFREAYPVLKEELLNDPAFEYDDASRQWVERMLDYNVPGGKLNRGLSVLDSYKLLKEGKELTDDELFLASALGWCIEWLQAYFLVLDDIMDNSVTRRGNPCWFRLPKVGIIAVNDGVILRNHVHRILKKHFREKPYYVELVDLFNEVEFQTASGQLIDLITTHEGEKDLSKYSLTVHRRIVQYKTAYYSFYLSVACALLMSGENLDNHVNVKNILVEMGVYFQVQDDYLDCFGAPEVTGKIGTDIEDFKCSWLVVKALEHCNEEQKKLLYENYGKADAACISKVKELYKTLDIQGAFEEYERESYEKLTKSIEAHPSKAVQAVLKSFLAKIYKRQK

For `CC(C)=CCOP(=O)(O)OP(=O)(O)O` [DMAPP], which “GC-MS of geraniol after alkaline phosphatase” value ([1]; with IPP, DMAPP 100 μM) is on record?
The value was “Purified recombinant AiGDS was incubated with equimolar concentration of IPP and DMAPP”.

What does the source list for `CC(C)=CCC/C(C)=C/CC/C(C)=C/COP(=O)(O)OP(=O)(O)O` [FPP]?
GC-MS of squalene [2]: full length and truncated AiSQS with FPP in the presence of NADPH; GC-MS of squalene [3]: full length and truncated AiSQS with FPP in the presence of NADPH

With `CC(C)=CCC/C(C)=C/COP(=O)(O)OP(=O)(O)O` [GPP] as the compound, how does the “GC-MS of (E,E)-farnesol after alkaline phosphatase” value ([4]; with IPP, GPP 100 μM) read?
The value was “purified short-chain prenyltransferase was incubated with DMAPP/GPP and IPP followed by treatment with alkaline phosphatase”.

How did the “GC-MS of geraniol after alkaline phosphatase” value ([1]; with DMAPP, IPP 100-200 μM) turn out when `C=C(C)CCOP(=O)(O)OP(=O)(O)O` [IPP] was run?
The value was “Purified recombinant AiGDS was incubated with equimolar concentration of IPP and DMAPP”.

And the “GC-MS of (E,E)-farnesol after alkaline phosphatase” value ([4]; with DMAPP or GPP, IPP 100-200 μM)?
The value was “purified short-chain prenyltransferase was incubated with DMAPP/GPP and IPP followed by treatment with alkaline phosphatase”.

With `NC(=O)C1=CN([C@@H]2O[C@H](COP(=O)(O)OP(=O)(O)OC[C@H]3O[C@@H](n4cnc5c(N)ncnc54)[C@H](OP(=O)(O)O)[C@@H]3O)[C@@H](O)[C@H]2O)C=CC1` [NADPH] as the compound, how does the GC-MS of squalene [2] read?
The GC-MS of squalene was “full length and truncated AiSQS with FPP in the presence of NADPH”.

And the GC-MS of squalene [3]?
Its GC-MS of squalene is “full length and truncated AiSQS with FPP in the presence of NADPH”.
